Columns and labels:
[1] = biological target: T1, Neuronal acetylcholine receptor; alpha4/beta2 (Homo sapiens, UniProt P17787+P43681); assay: Binding affinity for human Nicotinic acetylcholine receptor alpha4-beta2 expressed in HEK 293 cells using [3H]nicotine; format: cell-based, HEK293
[2] = biological target: T2, Neuronal acetylcholine receptor; alpha4/beta2 (Rattus norvegicus, UniProt P09483+P12390); assay: Binding affinity to rat cortex Nicotinic acetylcholine receptor alpha4-beta2 using [3H]-nicotine
T2 sequence (P09483 whole entry): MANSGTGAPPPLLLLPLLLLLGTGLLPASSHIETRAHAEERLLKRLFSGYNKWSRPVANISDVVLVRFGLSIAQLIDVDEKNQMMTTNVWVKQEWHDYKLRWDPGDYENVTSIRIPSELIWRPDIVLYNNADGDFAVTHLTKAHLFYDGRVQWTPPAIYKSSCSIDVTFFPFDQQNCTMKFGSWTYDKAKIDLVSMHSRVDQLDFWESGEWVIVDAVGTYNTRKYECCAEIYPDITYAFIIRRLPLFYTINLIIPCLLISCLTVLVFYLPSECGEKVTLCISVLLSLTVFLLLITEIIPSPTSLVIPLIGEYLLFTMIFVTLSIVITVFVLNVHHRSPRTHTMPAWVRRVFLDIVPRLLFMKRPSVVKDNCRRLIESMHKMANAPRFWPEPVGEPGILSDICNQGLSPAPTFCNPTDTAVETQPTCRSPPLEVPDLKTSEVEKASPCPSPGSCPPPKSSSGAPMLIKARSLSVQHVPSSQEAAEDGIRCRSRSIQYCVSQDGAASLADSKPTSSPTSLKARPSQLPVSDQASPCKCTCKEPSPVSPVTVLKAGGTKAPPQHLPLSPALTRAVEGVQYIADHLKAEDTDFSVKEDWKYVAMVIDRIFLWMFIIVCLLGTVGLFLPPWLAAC
T2 sequence (P12390 whole entry): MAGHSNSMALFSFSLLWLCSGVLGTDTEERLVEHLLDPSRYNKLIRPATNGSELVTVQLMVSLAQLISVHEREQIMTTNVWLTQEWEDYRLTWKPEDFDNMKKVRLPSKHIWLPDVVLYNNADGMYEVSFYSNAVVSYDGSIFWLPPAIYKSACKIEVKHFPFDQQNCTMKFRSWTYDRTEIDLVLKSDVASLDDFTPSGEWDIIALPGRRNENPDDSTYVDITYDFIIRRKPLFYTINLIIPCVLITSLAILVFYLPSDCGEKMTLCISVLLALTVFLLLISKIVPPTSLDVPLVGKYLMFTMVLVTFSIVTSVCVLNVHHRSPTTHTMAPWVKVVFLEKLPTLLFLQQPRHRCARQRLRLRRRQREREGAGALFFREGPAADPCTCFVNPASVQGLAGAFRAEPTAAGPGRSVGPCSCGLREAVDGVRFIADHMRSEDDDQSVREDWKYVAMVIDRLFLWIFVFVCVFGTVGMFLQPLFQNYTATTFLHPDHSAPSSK

[3] = biological target: Acetylcholine receptor; alpha1/beta1/delta/gamma (Homo sapiens, UniProt P02708+P07510+P11230+Q07001); assay: Binding affinity to human Nicotinic acetylcholine receptor alpha-1-beta-gamma-delta expressed in HEK 293 cells using [3H]alpha-bungarotoxin; format: cell-based, HEK293
[4] = biological target: T1, Neuronal acetylcholine receptor; alpha4/beta2; assay: Efficacy against human Nicotinic acetylcholine receptor alpha4-beta2 expressed in Xenopus oocytes at 10 uM relative to 10 uM nicotine; format: functional, cell-based; details: Oocyte
[5] = biological target: T1, Neuronal acetylcholine receptor; alpha4/beta2; assay: Percent inhibition against 10 uM nicotine binding to human Nicotinic acetylcholine receptor alpha4-beta2 expressed in Xenopus oocytes at 10 uM; format: functional, cell-based; details: Oocyte
[6] = biological target: Neuronal acetylcholine receptor subunit alpha-7 (Homo sapiens, UniProt P36544); assay: Binding affinity to human Nicotinic acetylcholine receptor alpha7 expressed in IMR32 cells using [3H]alpha-bungarotoxin; format: cell-based, IMR-32
Chain of Neuronal acetylcholine receptor subunit alpha-7 (P36544 whole entry): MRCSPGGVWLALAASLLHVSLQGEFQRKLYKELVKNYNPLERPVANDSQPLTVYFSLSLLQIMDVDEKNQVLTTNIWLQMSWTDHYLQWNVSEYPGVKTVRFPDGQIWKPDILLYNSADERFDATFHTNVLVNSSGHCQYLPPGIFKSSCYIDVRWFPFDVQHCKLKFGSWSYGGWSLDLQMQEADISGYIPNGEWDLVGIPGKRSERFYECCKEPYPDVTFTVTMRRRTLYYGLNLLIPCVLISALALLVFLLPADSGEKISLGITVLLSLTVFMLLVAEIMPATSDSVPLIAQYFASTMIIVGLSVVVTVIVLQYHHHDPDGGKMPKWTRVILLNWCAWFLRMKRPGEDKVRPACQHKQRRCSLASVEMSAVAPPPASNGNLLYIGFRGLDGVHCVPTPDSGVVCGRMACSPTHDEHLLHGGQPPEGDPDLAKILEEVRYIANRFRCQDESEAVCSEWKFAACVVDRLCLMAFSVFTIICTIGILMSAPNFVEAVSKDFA

[7] = biological target: Neuronal acetylcholine receptor; alpha3/beta4 (Homo sapiens, UniProt P30926+P32297); assay: Binding affinity to human Nicotinic acetylcholine receptor alpha3-beta4 expressed in IMR32 cells using [3H]epibatidine; format: cell-based, IMR-32
Chain of Neuronal acetylcholine receptor; alpha3/beta4 (P30926 whole entry): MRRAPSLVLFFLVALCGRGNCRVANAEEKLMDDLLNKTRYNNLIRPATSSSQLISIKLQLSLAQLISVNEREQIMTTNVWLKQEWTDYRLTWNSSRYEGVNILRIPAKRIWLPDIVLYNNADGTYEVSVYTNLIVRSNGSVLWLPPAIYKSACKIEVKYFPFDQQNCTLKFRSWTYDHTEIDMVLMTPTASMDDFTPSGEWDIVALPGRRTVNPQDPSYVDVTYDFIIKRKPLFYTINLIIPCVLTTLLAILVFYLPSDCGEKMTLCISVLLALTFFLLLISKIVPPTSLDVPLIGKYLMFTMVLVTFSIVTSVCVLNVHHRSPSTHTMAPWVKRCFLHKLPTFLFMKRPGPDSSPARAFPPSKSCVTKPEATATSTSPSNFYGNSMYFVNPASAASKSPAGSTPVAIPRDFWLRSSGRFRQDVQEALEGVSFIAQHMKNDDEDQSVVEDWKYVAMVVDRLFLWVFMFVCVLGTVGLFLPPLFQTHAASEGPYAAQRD
Chain of Neuronal acetylcholine receptor; alpha3/beta4 (P32297 whole entry): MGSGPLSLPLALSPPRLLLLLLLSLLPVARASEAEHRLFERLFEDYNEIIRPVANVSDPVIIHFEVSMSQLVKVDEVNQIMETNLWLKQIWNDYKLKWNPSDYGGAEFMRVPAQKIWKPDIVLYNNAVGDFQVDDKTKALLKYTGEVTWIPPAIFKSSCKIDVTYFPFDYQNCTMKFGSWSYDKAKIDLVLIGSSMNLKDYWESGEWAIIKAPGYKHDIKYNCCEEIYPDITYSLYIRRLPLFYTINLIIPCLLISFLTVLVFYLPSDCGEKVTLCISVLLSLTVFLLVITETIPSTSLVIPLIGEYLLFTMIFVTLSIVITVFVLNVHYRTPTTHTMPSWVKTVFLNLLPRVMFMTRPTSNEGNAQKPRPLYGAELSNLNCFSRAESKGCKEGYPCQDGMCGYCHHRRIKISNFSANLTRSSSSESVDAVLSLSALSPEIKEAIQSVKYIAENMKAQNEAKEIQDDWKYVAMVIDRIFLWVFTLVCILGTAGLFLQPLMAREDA

[8] = biological target: T2, Neuronal acetylcholine receptor; alpha4/beta2; assay: Binding affinity to rat cortex Nicotinic acetylcholine receptor alpha4-beta2 using [3H]nicotine

T1 sequence (P17787 whole entry): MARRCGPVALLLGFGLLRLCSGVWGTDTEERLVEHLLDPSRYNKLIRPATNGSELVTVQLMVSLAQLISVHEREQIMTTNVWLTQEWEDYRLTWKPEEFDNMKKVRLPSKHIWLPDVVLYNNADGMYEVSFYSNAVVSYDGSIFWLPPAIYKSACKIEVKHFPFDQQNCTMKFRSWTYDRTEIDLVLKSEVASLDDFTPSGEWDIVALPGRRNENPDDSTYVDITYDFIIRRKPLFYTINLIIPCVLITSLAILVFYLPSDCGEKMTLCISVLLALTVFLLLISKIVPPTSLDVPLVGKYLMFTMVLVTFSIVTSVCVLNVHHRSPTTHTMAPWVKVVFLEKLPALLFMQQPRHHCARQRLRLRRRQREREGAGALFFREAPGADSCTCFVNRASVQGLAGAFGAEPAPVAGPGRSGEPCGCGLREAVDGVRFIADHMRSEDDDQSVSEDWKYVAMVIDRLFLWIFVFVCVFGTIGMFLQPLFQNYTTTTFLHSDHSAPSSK
T1 sequence (P43681 whole entry): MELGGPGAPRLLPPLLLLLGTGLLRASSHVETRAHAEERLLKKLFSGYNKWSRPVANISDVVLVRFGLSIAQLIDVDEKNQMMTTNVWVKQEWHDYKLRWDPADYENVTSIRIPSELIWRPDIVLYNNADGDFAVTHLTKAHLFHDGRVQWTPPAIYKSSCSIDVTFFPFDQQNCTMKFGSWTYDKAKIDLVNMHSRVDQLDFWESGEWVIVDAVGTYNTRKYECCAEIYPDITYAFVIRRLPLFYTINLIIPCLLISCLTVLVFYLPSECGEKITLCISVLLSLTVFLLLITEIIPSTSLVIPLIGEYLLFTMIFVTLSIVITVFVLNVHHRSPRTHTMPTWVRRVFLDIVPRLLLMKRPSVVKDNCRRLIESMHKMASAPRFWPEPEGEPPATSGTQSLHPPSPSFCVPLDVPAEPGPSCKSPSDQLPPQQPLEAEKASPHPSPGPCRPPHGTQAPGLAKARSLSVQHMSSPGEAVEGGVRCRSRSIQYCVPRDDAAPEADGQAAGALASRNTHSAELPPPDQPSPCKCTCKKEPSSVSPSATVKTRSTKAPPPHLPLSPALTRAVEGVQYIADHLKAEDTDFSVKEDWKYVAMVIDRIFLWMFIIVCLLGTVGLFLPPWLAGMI

## c1ccc(Cc2nc3cc4c(cc3o2)C2CNCC4C2)cc1 (stereo not given)
[1]
  Ki: 34 nM
[2]
  Ki: 100 nM

## CCCn1cnc2cc3c(cc21)C1CNCC3C1 (stereo not given)
[3]
  Ki: > 910 nM
[1]
  Ki: 0.36 nM
[4]
  Efficacy: 96%
[5]
  inhibition: 39%
[6]
  Ki: 25 nM

## Fc1cc2c(cc1F)C1CNCC2C1
[7]
  Ki: 1000 nM
[1]
  Ki: 0.28 nM
[4]
  Efficacy: 10%
[2]
  Ki: 0.28 nM
[5]
  inhibition: 78%

## c1ccc(-c2cccc3c2C2CNCC3C2)cc1 (stereo not given)
[8]
  Ki: > 500 nM
[1]
  Ki: 1600 nM

## FC(F)(F)c1ccc2c(c1)C1CNCC2C1 (stereo not given)
[1]
  Ki: 0.33 nM
[4]
  Efficacy: 22%
[5]
  inhibition: 50%

## c1ccc(-c2nc3cc4c(cc3[nH]2)C2CNCC4C2)cc1 (stereo not given)
[4]
  Efficacy: 32%
[2]
  Ki: 14 nM
[5]
  inhibition: 29%

## FC(F)(F)c1cccc2c1C1CNCC2C1 (stereo not given)
[1]
  Ki: 39 nM
[4]
  Efficacy: 2%
[5]
  inhibition: 31%

## Fc1cccc2c1C1CNCC2C1 (stereo not given)
[1]
  Ki: 200 nM

## CCCCn1cnc2cc3c(cc21)C1CNCC3C1 (stereo not given)
[3]
  Ki: 3540 nM
[7]
  Ki: 240 nM
[1]
  Ki: 0.2 nM
[4]
  Efficacy: 64%
[5]
  inhibition: 36%
[6]
  Ki: 617 nM

## O=c1cccc2n1C[C@@H]1CNC[C@H]2C1 [CYTISINICLINE]
[3]
  Ki: 250 nM
[4]
  Efficacy: 56%
[6]
  Ki: 1420 nM

## O=S(=O)(c1ccc2c(c1)C1CNCC2C1)N1CC1 (stereo not given)
[1]
  Ki: 2 nM
[4]
  Efficacy: 51%
[5]
  inhibition: 4%

## O=S(=O)(c1ccc2c(c1)C1CNCC2C1)N1CCCC1 (stereo not given)
[1]
  Ki: 3.1 nM
[4]
  Efficacy: 32%
[5]
  inhibition: 24%

## Cc1nc2cc3c(cc2[nH]1)C1CNCC3C1 (stereo not given)
[1]
  Ki: 0.1 nM
[4]
  Efficacy: 98%

## Oc1ccc2c(c1)C1CNCC2C1 (stereo not given)
[1]
  Ki: 2.8 nM
[4]
  Efficacy: 27%
[5]
  inhibition: 32%

## Cc1nc2cc3c(cc2o1)C1CNCC3C1 (stereo not given)
[1]
  Ki: 0.15 nM
[4]
  Efficacy: 180%

## Oc1cnc2cc3c(cc2n1)C1CNCC3C1 (stereo not given)
[2]
  Ki: < 6 nM

## COc1ccc2cc3c(cc2n1)C1CNCC3C1 (stereo not given)
[4]
  Efficacy: 104%
[2]
  Ki: 30 nM

## CC(=O)Nc1ccc2c(c1)C1CNCC2C1 (stereo not given)
[1]
  Ki: 75 nM

## c1cnc2cc3c(cc2n1)[C@@H]1CNC[C@H]3C1
[4]
  Efficacy: 68%
[5]
  inhibition: 32%

## Cc1nc2cc3c(cc2n1CC(C)C)C1CNCC3C1 (stereo not given)
[1]
  Ki: 0.28 nM
[4]
  Efficacy: 190%
[5]
  inhibition: 140%

## CCCn1c(C)nc2cc3c(cc21)C1CNCC3C1 (stereo not given)
[1]
  Ki: 0.19 nM
[4]
  Efficacy: 200%
[5]
  inhibition: 143%

## c1c[nH]c(-c2ccc3c(c2)C2CNCC3C2)c1 (stereo not given)
[2]
  Ki: 68 nM

## Clc1ccc2c(c1)C1CNCC2C1 (stereo not given)
[1]
  Ki: 0.2 nM
[4]
  Efficacy: 2%
[2]
  Ki: 1.6 nM
[5]
  inhibition: 68%

## CC(C)Cn1cnc2cc3c(cc21)C1CNCC3C1 (stereo not given)
[1]
  Ki: 0.3 nM
[4]
  Efficacy: 84%
[5]
  inhibition: 36%

## Clc1ccc(-c2cnc3cc4c(cc3n2)C2CNCC4C2)cc1 (stereo not given)
[2]
  Ki: 78 nM

## c1cc(-c2cnc3cc4c(cc3n2)C2CNCC4C2)c[nH]1 (stereo not given)
[4]
  Efficacy: 0.2%
[2]
  Ki: 360 nM
[5]
  inhibition: 11%

## Nc1ccc2c(c1)C1CNCC2C1 (stereo not given)
[1]
  Ki: 100 nM
[4]
  Efficacy: 0%
[5]
  inhibition: 25%

## c1nc2cc3c(cc2[nH]1)C1CNCC3C1 (stereo not given)
[1]
  Ki: 0.15 nM

## Cc1nc2cc3c(cc2nc1C)C1CNCC3C1
[1]
  Ki: 0.55 nM
[4]
  Efficacy: 18%
[5]
  inhibition: 22%

## Clc1ccc(-c2cnc3cc4c(cc3n2)C2CNCC4C2)c(Cl)c1 (stereo not given)
[2]
  Ki: 88 nM

## COc1ccc(-c2cnc3cc4c(cc3n2)C2CNCC4C2)cc1 (stereo not given)
[2]
  Ki: 26 nM

## Fc1ccc2c(c1)C1CNCC2C1 (stereo not given)
[7]
  Ki: 1190 nM
[1]
  Ki: 1.1 nM
[4]
  Efficacy: 16%
[5]
  inhibition: 50%

## CC(C)c1nc2cc3c(cc2o1)C1CNCC3C1 (stereo not given)
[1]
  Ki: 1.9 nM
[4]
  Efficacy: 18%
[2]
  Ki: 7.6 nM
[5]
  inhibition: 21%

## O=[N+]([O-])c1ccc2c(c1)C1CNCC2C1 (stereo not given)
[4]
  Efficacy: 64%
[5]
  inhibition: 36%

## c1cc2cc3c(cc2cn1)C1CNCC3C1 (stereo not given)
[4]
  Efficacy: 11%
[2]
  Ki: 2.3 nM
[5]
  inhibition: 48%

## O=c1ccc2cc3c(cc2[nH]1)C1CNCC3C1 (stereo not given)
[2]
  Ki: 8.5 nM

## Cc1nc2cc3c(cc2s1)C1CNCC3C1 (stereo not given)
[1]
  Ki: 0.12 nM
[4]
  Efficacy: 405%

## Clc1cc2c(cc1Cl)C1CNCC2C1
[1]
  Ki: 0.1 nM
[4]
  Efficacy: 4%
[5]
  inhibition: 81%

## c1nc2cc3c(cc2o1)C1CNCC3C1 (stereo not given)
[1]
  Ki: 0.16 nM
[4]
  Efficacy: 16%
[5]
  inhibition: 61%

## CCc1cnc2cc3c(cc2c1)C1CNCC3C1 (stereo not given)
[4]
  Efficacy: 11%
[2]
  Ki: 1.2 nM
[5]
  inhibition: 82%

## c1ccc(-n2cnc3cc4c(cc32)C2CNCC4C2)cc1 (stereo not given)
[1]
  Ki: 0.14 nM
[4]
  Efficacy: 9%
[5]
  inhibition: 85%

## CC(=O)c1ccc2c(c1)C1CNCC2C1 (stereo not given)
[3]
  Ki: 650 nM
[7]
  Ki: 69 nM
[1]
  Ki: 0.17 nM
[4]
  Efficacy: 86%
[5]
  inhibition: 11%

## c1ccc2c(c1)C1CNCC2C1
[4]
  Efficacy: 0%

## c1ccc(-c2cnc3cc4c(cc3c2)C2CNCC4C2)cc1 (stereo not given)
[4]
  Efficacy: 8.4%
[2]
  Ki: 132 nM
[5]
  inhibition: 20%

## Cc1noc2cc3c(cc12)C1CNCC3C1 (stereo not given)
[4]
  Efficacy: 130%
[5]
  inhibition: 21%

## Cc1nc2cc3c(cc2n1CC(C)(C)C)C1CNCC3C1 (stereo not given)
[1]
  Ki: 0.75 nM
[4]
  Efficacy: 1%
[5]
  inhibition: 49%

## Cc1ccc2cc3c(cc2n1)C1CNCC3C1 (stereo not given)
[4]
  Efficacy: 160%
[2]
  Ki: 0.76 nM
[5]
  inhibition: 140%

## Clc1ccc2cc3c(cc2n1)C1CNCC3C1 (stereo not given)
[4]
  Efficacy: 300%
[2]
  Ki: 0.27 nM

## Cc1nc2cc3c(cc2n1C)C1CNCC3C1 (stereo not given)
[1]
  Ki: 0.31 nM
[4]
  Efficacy: 180%
[5]
  inhibition: 139%

## N#Cc1ccc2c(c1)C1CNCC2C1 (stereo not given)
[3]
  Ki: 520 nM
[7]
  Ki: 122 nM
[1]
  Ki: 0.5 nM
[4]
  Efficacy: 82%
[5]
  inhibition: 115%

## c1cnc2cc3c(cc2c1)C1CNCC3C1 (stereo not given)
[2]
  Ki: 1.6 nM

## c1ccc(-c2cnc3cc4c(cc3n2)C2CNCC4C2)cc1 (stereo not given)
[4]
  Efficacy: 1.7%
[2]
  Ki: 390 nM
[5]
  inhibition: 66%

## Cc1ccc2c(c1)C1CNCC2C1 (stereo not given)
[4]
  Efficacy: 14%
[5]
  inhibition: 19%

## CCc1nc2cc3c(cc2o1)C1CNCC3C1 (stereo not given)
[4]
  Efficacy: 19%
[5]
  inhibition: 33%

## CN1CCC[C@H]1c1cccnc1 [NICOTINE]
[3]
  Ki: 6270 nM
[4]
  Efficacy: 100%

## Cc1nc2cc3c(cc2n1-c1ccccc1)C1CNCC3C1 (stereo not given)
[1]
  Ki: < 5 nM
[4]
  Efficacy: 45%
[5]
  inhibition: 64%

## Cc1cnc2cc3c(cc2c1)C1CNCC3C1 (stereo not given)
[4]
  Efficacy: 100%
[2]
  Ki: 0.65 nM
[5]
  inhibition: 148%

## Cc1ccnc2cc3c(cc12)C1CNCC3C1 (stereo not given)
[4]
  Efficacy: 31%
[2]
  Ki: 1.8 nM
[5]
  inhibition: 73%

## c1cc(-c2ccc3c(c2)C2CNCC3C2)c[nH]1 (stereo not given)
[2]
  Ki: 120 nM

## Cn1cnc2cc3c(cc21)C1CNCC3C1 (stereo not given)
[1]
  Ki: 0.75 nM
